Test results taken from ChEMBL document CHEMBL5113395, “Azetidin-2-one-based small molecules as dual hHDAC6/HDAC8 inhibitors: Investigation of their mechanism of action and impact of dual inhibition profile on cell viability” (Eur J Med Chem, 2022).

Key:
B cell = experiment: Cytotoxicity against patient derived human B cells; assay type: toxicity, cell-based
[1] = Cardiotoxicity in Langendorff-perfused Wistar rat heart assessed as effect on HR at 0.1 uM by ECG analysis (reference value: 252.3 +/-10.1 bpm); assay type: toxicity, tissue-based
[2] = Cardiotoxicity in Langendorff-perfused Wistar rat heart assessed as effect on RR time at 0.01 uM by ECG analysis (reference value: 239.5+/-9.2 milliseconds); assay type: toxicity, tissue-based
[3] = Cardiotoxicity in Langendorff-perfused Wistar rat heart assessed as effect on RR time at 10 uM by ECG analysis (reference value: 239.5+/-9.2 milliseconds); assay type: toxicity, tissue-based
[4] = Cardiotoxicity in Langendorff-perfused Wistar rat heart assessed as effect on PQ interval time at 0.01 uM by ECG analysis (reference value: 45.4+/-3.9 milliseconds); assay type: toxicity, tissue-based
[5] = Cardiotoxicity in Langendorff-perfused Wistar rat heart assessed as effect on PQ interval time at 0.1 uM by ECG analysis (reference value: 45.4+/-3.9 milliseconds); assay type: toxicity, tissue-based
[6] = Cardiotoxicity in Langendorff-perfused Wistar rat heart assessed as effect on PQ interval time at 10 uM by ECG analysis (reference value: 45.4+/-3.9 milliseconds); assay type: toxicity, tissue-based
[7] = Cardiotoxicity in Langendorff-perfused Wistar rat heart assessed as effect on QRS interval time at 0.1 uM by ECG analysis (reference value: 13.3+/-0.6 milliseconds); assay type: toxicity, tissue-based
[8] = Cardiotoxicity in Langendorff-perfused Wistar rat heart assessed as effect on QRS interval time at 1 uM by ECG analysis (reference value: 13.3+/-0.6 milliseconds); assay type: toxicity, tissue-based
[9] = Cardiotoxicity in Langendorff-perfused Wistar rat heart assessed as effect on QT interval time at 0.01 uM by ECG analysis (reference value: 66.1+/-1.1 milliseconds); assay type: toxicity, tissue-based

SMILES: O=C(NO)c1ccc(CNC(=O)N2CCC(N3CC(c4ccccc4)(c4ccccc4)C3=O)CC2)cc1
- Activity (B cell): Non-Toxic
- Activity [1]: 258.4 bpm
- Time [2]: 239.8 ms
- Time [3]: 241.5 ms
- Time [4]: 44.4 ms
- Time [5]: 44.9 ms
- Time [6]: 47.5 ms
- Time [7]: 13.1 ms
- Time [8]: 13.9 ms
- Time [9]: 66.7 ms
